We go through 3 compounds from US11235033B1, “Materials and methods for the treatment of vascular calcification” (THE FLORIDA INTERNATIONAL UNIVERSITY BOARD OF TRUSTEES, priority 2020, dated 2022).

“Also recorded” adds a separate entry of the source. Where two headings read alike, the source gives them in different places.

Data set [1] concerns tissue non-specific alkaline phosphatase (TNAP). Description: TNAP activity in EVs released by SMCs. The note with it: AG 1478 2.5 μM, FIG. 8B. It is filed as cell-based, human. An excerpt: To obtain EVs from the mouse aortae, following collagenase digestion and tissue homogenization using a Dounce homogenizer, cells and large extracellular aggregates are removed by centrifugation steps of 1,000×g and 10,000×g, respectively. EVs are isolated from the remaining supernatant by ultracentrifugation at 100,000×g. Western blotting analyses of commonly enriched EV markers determine the efficacy of the isolation procedures. The presence of caveolin-1 and activity of the pro-calcific enzyme TNAP are also assessed in the extracted EVs.
(§1) EVs from the in vitro samples are isolated using previously established procedures, which includes 1,000×g and 10,000×g centrifugations to remove cells and large contaminants and a 100,000×g ultracentrifugation to obtain EVs suspended in conditioned media.

In another data set the test system is CKD mice. Description: Aortic calcification in CKD mice fed a high phosphate diet. It is filed as in vivo, mouse. Particulars: for calcification in treated CKD mice: CKD diet regimen, AG1478 20 mg/kg or ML290 30 mg/kg oral gavage every 2 days. The method, then:
Eight-week old SMMHC-CreER^T2+/Cav1^fl/fl mice receive daily intraperitoneal injections of either peanut oil (vehicle control) or tamoxifen (1 mg/kg) for two weeks. Following the final injection, mice receive an adenine-enriched (0.2%) diet for 6 weeks to induce kidney dysfunction. Elevated phosphate (1.8%) is then added to the diet to induce medial calcification. Using a sensitive near-infrared calcium mineral tracer (OsteoSense 680), significant aortic calcification in mice was observed after 2 weeks of the high phosphate diet (FIG. 1). Vascular calcification continues to increase for up to 6 weeks of the high phosphate diet.
To test the therapeutic efficacy of these small molecules, e.g., ML290 or AG1478, the same CKD diet regimen is used as discussed above. A mouse model designed to test agonists for human RXFP1 is utilized.
Beginning at prescribed time points (FIG. 11), mice are treated with the EGFR inhibitor, AG1478 (20 mg/kg), or ML290 (30 mg/kg) via oral gavage every 2 days. Control mice receive vehicle gavage. The treatments begin either at the initiation of the high phosphate diet (to determine if the treatments prevent mineral formation) or after two weeks of the high phosphate diet (to determine if the treatments can reverse medial calcification).

The test system of data set [2] is caveolin-1. Description: Immunofluorescence of caveolin-1 localization in SMCs in pro-calcific media. The class given is cell-based, human. The note with it: 1 μM AG1478, SMCs in pro-calcific media; FIG. 13. An excerpt: (§2) The vasodilatory effects of RXFP1 agonism occurs through interactions within caveolae on endothelial cells. G-protein-coupled receptors (GPCRs), such as RXFP1, use caveolae scaffolding domains to regulate interactions with other proteins and activate downstream signaling. […] RXFP1 agonism may stabilize existing caveolae, leading to the observed decreased caveolin-1 turnover. RXFP1 agonist-induced stabilization of caveolae may prevent the formation of calcifying EVs.
(§3) To determine changes in caveolin-1 associated with the culture conditions and treatments, western blotting and immunofluorescence are used to assay caveolin-1 phosphorylation on tyrosine 14. This site is associated with changes in EGFR activity and caveolae internalization. Immunofluorescence is then used to assess the localization of caveolin-1 within the SMCs for the different culture conditions at these time points. Western blotting is used to quantify caveolin-1 in EVs relative to SMC lysates.

The subject of a further data set is dynamin. Particulars: cited from earlier work.
Data set [3] relates to primary human coronary artery smooth muscle cells. Description: Calcific mineral formation by SMCs cultured in pro-calcific (osteogenic) media in vitro. The note with it: for SMC mineralization in vitro: AG 1478 2.5 μM, FIG. 8A. It is filed as cell-based. The method, then: Pro-calcific media, optimized to induce calcification, consists of growth media supplemented with 10 nM dexamethasone, 100 μM L-ascorbic acid, and 10 mM β-glycerolphosphate. All in vitro experiments proceed for 14 days, when release of calcifying EVs from human coronary artery SMCs in pro-calcific media peaks.
[…] Changes in SMC phenotype are assayed in the culture conditions and in response to the small molecule treatments by measuring expression of osteogenic and SMC relevant genes at the time points considered. In vitro mineralization is assessed using alizarin red S staining, extraction, and colorimetric analyses after 21 days in culture.

Data set [4] has as its system caveolin-1. The experiment in a line: Western blotting of caveolin-1 in SMCs and in EVs under pro-calcific conditions. It is filed as cell-based, human. The note with it: AG 1478 2.5 μM; for EV caveolin-1: EVs under pro-calcific conditions, FIG. 8D; for intracellular caveolin-1: SMCs, FIG. 8C.
Description: as §1, §3
On the technique in general: Immunoblotting shows a protein as a band on a membrane.

The next data set addresses T1, rodent receptor (Mus musculus, UniProt Q6R6I7).
T1 sequence (Q6R6I7 1-758): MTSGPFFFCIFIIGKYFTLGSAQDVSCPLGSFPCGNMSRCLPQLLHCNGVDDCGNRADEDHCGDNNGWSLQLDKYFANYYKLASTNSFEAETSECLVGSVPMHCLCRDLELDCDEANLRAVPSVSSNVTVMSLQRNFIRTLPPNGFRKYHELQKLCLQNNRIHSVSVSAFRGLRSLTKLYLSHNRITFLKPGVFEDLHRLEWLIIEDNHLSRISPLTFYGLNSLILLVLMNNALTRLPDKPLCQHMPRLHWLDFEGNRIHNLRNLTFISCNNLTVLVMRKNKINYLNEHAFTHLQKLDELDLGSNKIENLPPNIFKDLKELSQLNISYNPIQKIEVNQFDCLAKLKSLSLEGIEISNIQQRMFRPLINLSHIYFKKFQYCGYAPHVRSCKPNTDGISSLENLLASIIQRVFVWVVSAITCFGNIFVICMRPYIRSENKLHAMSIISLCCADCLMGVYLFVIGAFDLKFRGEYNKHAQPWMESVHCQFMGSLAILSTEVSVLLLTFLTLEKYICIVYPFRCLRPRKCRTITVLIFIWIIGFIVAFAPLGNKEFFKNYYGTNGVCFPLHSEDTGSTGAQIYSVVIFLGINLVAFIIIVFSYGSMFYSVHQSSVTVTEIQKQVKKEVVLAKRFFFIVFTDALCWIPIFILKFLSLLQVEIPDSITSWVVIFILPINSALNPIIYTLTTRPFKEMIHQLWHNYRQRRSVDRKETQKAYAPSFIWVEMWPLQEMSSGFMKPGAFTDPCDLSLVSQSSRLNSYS
Particulars: cited from earlier work.

Data set [5] addresses T2, RXFP1 (Homo sapiens, UniProt Q9HBX9).
T2 sequence (Q9HBX9 1-757): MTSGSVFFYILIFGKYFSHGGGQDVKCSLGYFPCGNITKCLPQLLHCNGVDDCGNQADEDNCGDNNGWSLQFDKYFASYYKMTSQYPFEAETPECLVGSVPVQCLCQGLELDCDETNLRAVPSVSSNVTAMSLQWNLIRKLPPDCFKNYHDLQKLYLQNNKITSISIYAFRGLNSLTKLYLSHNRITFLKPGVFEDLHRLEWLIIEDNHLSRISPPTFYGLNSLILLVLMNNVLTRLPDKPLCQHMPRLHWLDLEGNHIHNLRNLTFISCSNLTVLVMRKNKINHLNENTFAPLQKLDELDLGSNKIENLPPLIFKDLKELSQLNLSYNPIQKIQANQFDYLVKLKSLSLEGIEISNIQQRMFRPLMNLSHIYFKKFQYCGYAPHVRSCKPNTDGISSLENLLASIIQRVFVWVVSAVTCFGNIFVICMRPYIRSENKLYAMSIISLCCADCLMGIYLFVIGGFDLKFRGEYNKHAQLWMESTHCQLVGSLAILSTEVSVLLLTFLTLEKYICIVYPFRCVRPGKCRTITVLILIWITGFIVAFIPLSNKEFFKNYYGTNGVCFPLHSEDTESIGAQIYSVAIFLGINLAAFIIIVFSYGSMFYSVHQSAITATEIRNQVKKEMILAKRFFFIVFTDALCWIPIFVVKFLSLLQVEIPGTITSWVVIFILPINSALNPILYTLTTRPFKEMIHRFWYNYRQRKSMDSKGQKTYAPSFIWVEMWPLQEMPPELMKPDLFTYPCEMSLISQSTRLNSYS
The note with it: cited from earlier work.

The nature of data set [6]: Pharmacokinetics study of ML290 via oral administration in hRXFP1/hRXFP1 mice. The note with it: mouse, 30 mg/kg oral. It is filed as in vivo.
Another data set deals with PPARGC1A. Description: PPARGC1A gene expression in SMCs cultured in pro-calcific media. It is filed as cell-based, human. The note with it: FIG. 15. An excerpt:
The modulation of a different GPCR, the serotonin 2B receptor, alters intracellular trafficking to prevent calcification by aortic valve cells. Both 5-HT2B and RXFP1 can modulate vascular tone through interactions with nitric oxide synthase—a known caveolin-1 interactor. RXFP1 may, however, affect caveolin-1 protein stability directly. Peroxisome Proliferator-Activated Receptor γ (PPARγ) activation promotes lysosomal degradation of caveolin-1 in pulmonary artery SMCs. […] Therefore, thus result indicates the potential mechanism for the observed anti-calcific effects of ML290.

The subject of a further data set is THP1 cells. The note with it: cited from earlier work.
In data set [7] the test system is caveolin-1. Description: Caveolin-1 gene expression in pro-calcific SMC culture. The class given is cell-based, human. The note with it: SMCs, pro-calcific conditions, 24 h; FIG. 14.
Description: as §2

The nature of data set [8]: Adverse events in 25-week atherosclerotic mouse study. The class given is in vivo. The note with it: mice, oral gavage, preliminary 25-week atherosclerotic study.
Data set [9] deals with T2, RXFP1. The note with it: cited from earlier work. This is another data set of the same source.
The next data set has as its system atherogenic Apoe−/− mice. The experiment in a line: Calcification (OsteoSense fluorescence) in atherogenic Apoe-/- mice. The class given is in vivo, mouse. The note with it: oral gavage 30 mg/kg; for OsteoSense fluorescence (mineral) vs vehicle treated controls: after 25 weeks of atherogenic diet. The source says:
A chow control is shown for comparison (first aorta). C) Quantification of mice treated with ML290 at the initiation of the atherogenic diet. […] D) Quantification of OsteoSense signal in mice treated at 15 weeks of atherogenic diet, indicating potential of treatment to reverse existing remodeling. #p<0.0001.
Relaxin Family Peptide Receptor 1 (RXFP1) agonism induces vasodilation through a mechanism that may involve interactions with endothelial nitric oxide synthase within caveolae. The relaxin peptide, activating RXFP1, has therapeutic potential in treating fibrosis and vasculopathies.

The conditions of data set [10]: in vivo; cited from earlier work.
Another data set deals with hypertensive rats. Particulars: chronic treatment; cited from earlier work.

In the case of `COc1cc2ncnc(Nc3cccc(Cl)c3)c2cc1OC` [AG1478], the “EV TNAP activity” value is recorded as “reduces activity” in [1] and “reduces EV TNAP activity” in [1] (listed as AG 1478). Moreover, in the data set on CKD mice, the “calcification in treated CKD mice” value is recorded as “Diminished calcification”. In addition, the “caveolin-1 plasma membrane (peripheral) localization” value with caveolin-1 [2] is reported as “maintained the peripheral localization of caveolin-1; also recorded: preserves caveolin-1 (red) plasma membrane localization”. Further, in the data set on dynamin, the dynamin activity entry is “reduces dynamin activity”. The “SMC mineralization in vitro” value in [3] is listed as “prevents calcific mineral formation”; in [3] (listed as AG 1478) it was “prevents SMC mineralization”. The results for the “EV caveolin-1” value in the data set on caveolin-1 [4] and with caveolin-1 [4] (listed as AG 1478) were “reduces caveolin-1 released in EVs; also recorded: decreases EV caveolin-1” and “reduces EV caveolin-1”, respectively. Besides, the “intracellular caveolin-1” value in the data set on caveolin-1 [4] is on record as “does not change intracellular caveolin-1; also recorded: without affecting intracellular caveolin-1 levels”; in the data set on caveolin-1 [4] (listed as AG 1478), “does not affect intracellular caveolin-1”.
Turning to `CC(C)Oc1ccccc1C(=O)Nc1ccccc1C(=O)Nc1cccc(S(=O)(=O)C(F)(F)F)c1` [ML290], the “activation of rodent receptor” value at rodent receptor is “does not activate rodent receptor”. Further, the “selectivity towards RXFP1 over RXFP2 receptors” value at RXFP1 [5] is > 100 fold. For the same compound, the half-life in data set [6] (aorta, read-out: t½ in aorta (converted)) is 8 h; in [6] (serum, read-out: t½ in serum (converted)), 11 h. The PPARGC1A gene expression result in the data set with PPARGC1A is reported as “increases PPARGC1A; also recorded: increased expression of PPARGC1A”. In addition, the “calcification in treated CKD mice” value in the data set with CKD mice is “Diminished calcification”. Besides, the aortic calcification result in the data set with CKD mice (CKD mice, 30 mg/kg oral gavage from initiation of high phosphate diet, 2 weeks, FIG. 12, 30 mg/kg) is listed as “significant prevented aortic calcification; also recorded: significantly prevents aortic calcification”. Besides, in the data set on THP1 cells, the VEGF gene expression result is “increase”. Besides, the cAMP levels entry in the data set with THP1 cells is “increase”. Further, the caveolin-1 gene expression entry in the data set on caveolin-1 [7] is listed as “decreases caveolin-1 gene expression; also recorded: reduces caveolin-1 expression”. Also, in [8], the adverse events entry is “No adverse events”. For the same compound, on RXFP1 [9], the “agonism of human RXFP1” value is “potent and efficacious non-peptide agonist; also recorded: specific agonist for human RXFP1”. The “mineral formation by vascular smooth muscle cells in vitro” value in data set [3] (ML290 5 μM, FIG. 9A) is given as “significantly reduces mineral formation”. Moreover, in [3] (primary human coronary artery smooth muscle cells cultured in osteogenic stimuli), the “anti-calcification effect on human SMCs in vitro” value is listed as “mitigates calcification; also recorded: profound anti-calcification effects”. In the data set with atherogenic Apoe−/− mice (Apoe−/− mice, FIG. 9B, 30 mg/kg), the calcification in vivo result is on record as “mitigates calcification; also recorded: reduces calcification in vivo”. Moreover, the “OsteoSense fluorescence (mineral) vs vehicle treated controls” value with atherogenic Apoe−/− mice (treated after 15 weeks of atherogenic diet) and in the data set with atherogenic Apoe−/− mice (treated at the beginning of the atherogenic diet) was “Lower OsteoSense fluorescence” each time.
For the compound relaxin, in data set [10], the safety and tolerability entry is “safe and well-tolerated”. Besides, in the data set with hypertensive rats, the arterial compliance entry is “improved arterial compliance”.
